US20060142247A1, “Tricyclic heterocycles” (priority 2004, published 2006)
pIC50: −log10 of the molar value.

System: HCT 116 cells
Assay: Viability assay HCT 116 cells (CellTiter-Glo)
Format: cell-based
Details: Homo sapiens, HCT-116, 120 h, HCT 116 human colon carcinoma cells, 5 days incubation, CellTiter-Glo luminescence
Procedure: Viability Assay—HCT 116 Cells
A viability assay was performed using the CellTiter-Glo® Luminescent Cell Viability Assay (see Promega Corporation's Technical Bulletin No. 288, pp. 1-11 [revised 2/04] which is hereby incorporated by reference in its entirety). This assay is a homogeneous method of determining the number of viable cells in culture based on quantitation of the ATP present, an indicator of metabolically active cells. The assay is designed for use with multiwell formats, making it ideal for automated high-throughput screening (HTS), cell proliferation and cytotoxicity assays. The homogeneous assay procedure involves adding a single reagent (containing luciferase, luciferan substrate, and buffer) directly to cells cultured in serum-supplemented medium. Cell washing, removal of medium and multiple pipetting steps are not required. The system detects as few as 15 cells/well in a 384-well format in 10 minutes after adding reagent and mixing.
The homogeneous “add-mix-measure” format results in cell lysis and generation of a luminescent signal proportional to the amount of ATP present. The amount of ATP is directly proportional to the number of cells present in culture. The above-referenced assay generates a “glow-type” luminescent signal, produced by the luciferase reaction, which has a half-life generally greater than five hours, depending on cell type and medium used. The extended half-life eliminates the need to use reagent injectors and provides flexibility for continuous or batch mode processing of multiple plates. The unique homogeneous format avoids errors that may be introduced by other ATP measurement methods that require multiple steps.
HCT 116 cells (human colon carcinoma, ATCC-No. CCl-247) were cultivated in RPMI 1640 medium with GlutaMAX™ I (cell culture media that contains L-Alanyl-L-Glutamine [a stabilized a form/source of L-Glutamine] from Invitrogen, Cat-No. 61870-010), 2.5% Fetal Calf Serum (FCS, Sigma Cat-No. F4135 (FBS)); 100 Units/ml penicillin/100 μg/ml streptomycin (=Pen/Strep from Invitrogen Cat. No. 15140). For the assay the cells were seeded in 384 well plates, 1000 cells per well, in the same medium. The next day the test compounds were added in various concentrations ranging from 30 μM to 0.0015 μM (10 concentrations, 1:3 diluted). After 5 days the viability assay was done according to the instructions of the manufacturer. In brief: the cell-plate was equilibrated to room temperature for approximately 30 minutes and than the reagent (containing luciferase, luciferan substrate, and buffer) was added. The contents were carefully mixed for 15 minutes to induce cell lysis. After 45 minutes the luminescent signal was measured in Victor 2, (scanning multiwell spectrophotometer, Wallac).
Medium: RPMI 1640 with cell culture media containing L-Alanyl-L-Glutamine [GlutaMAX™ I (Invitrogen, Cat-Nr. 61870)], 5% FCS (Sigma Cat.-No. F4135), Pen/Strep (Invitrogen, Cat No. 15140). • HCT116 (ATCC-No. CCl-247): 1000 cells in 60 μl per well of 384 well plate (Greiner 781098, μClear-plate white) • After seeding incubate plates 24 h at 37° C., 5% CO2 2nd. Day: Induction (Treatment with Compounds, 10 Concentrations):
In order to achieve a final concentration of 30 μM as highest concentration […] of 10 mM compound stock solution were added directly to 163 μl media. Then step e) of the dilution procedure described below, was followed.

SMILES | pIC50
CC1(C)C(=O)N(CCNS(C)(=O)=O)c2cc3[nH]c(-c4n[nH]c5ccccc45)nc3cc21 [Example 61, N-{2-[2-(1H-Indazol-3-yl)-7,7-dimethyl-6-oxo-6,7-dihydro-3H-imidazo[4,5-f]indol-5-yl]-ethyl}-methanesulfonamide] | 6.00 to 7.00
CCN1C(=O)C(C)(C)c2cc3nc(-c4n[nH]c5ccc(C(=O)NCc6cccnc6)cc45)[nH]c3cc21 [Example 81, 3-(5-Ethyl-7,7-dimethyl-6-oxo-3,5,6,7-tetrahydro-imidazo[4,5-f]indol-2-yl)-1H-indazole-5-carboxylic acid (pyridin-3-ylmethyl)-amide; compound with acetic acid] | 6.00 to 7.00
CCN1C(=O)C(C)(C)c2cc3nc(-c4n[nH]c5ccc(C(=O)NCc6ccncc6)cc45)[nH]c3cc21 [Example 82, 3-(5-Ethyl-7,7-dimethyl-6-oxo-3,5,6,7-tetrahydro-imidazo[4,5-f]indol-2-yl)-1H-indazole-5-carboxylic acid (pyridin-4-ylmethyl)-amide; compound with acetic acid] | 5.00 to 6.00
CCN1C(=O)C(C)(C)c2cc3[nH]c(-c4n[nH]c5ccc(NS(=O)(=O)c6cccc(Cl)c6)cc45)nc3cc21 [Example 138, 3-Chloro-N-[3-(5-ethyl-7,7-dimethyl-6-oxo-1,5,6,7-tetrahydro-imidazo[4,5-f]indol-2-yl)-1H-indazol-5-yl]-benzenesulfonamide] | 6.00 to 7.00
CN1CCN(C(=O)NCCN2C(=O)C(C)(C)c3cc4nc(-c5n[nH]c6ccccc56)[nH]c4cc32)CC1 [Example 59, 4-Methyl-piperazine-1-carboxylic acid {2-[2-(1H-indazol-3-yl)-7,7-dimethyl-6-oxo-6,7-dihydro-3H-imidazo[4,5-f]indol-5-yl]-ethyl}-amide] | 5.00 to 6.00
CCN1C(=O)C(C)(C)c2cc3[nH]c(-c4n[nH]c5ccc(NS(=O)(=O)c6ccccc6S(C)(=O)=O)cc45)nc3cc21 [Example 140, N-[3-(5-Ethyl-7,7-dimethyl-6-oxo-1,5,6,7-tetrahydro-imidazo[4,5-f]indol-2-yl)-1H-indazol-5-yl]-2-methanesulfonyl-benzenesulfonamide] | 6.00 to 7.00
CCN1C(=O)C(C)(C)c2cc3nc(-c4n[nH]c5ccc(C#N)cc45)[nH]c3cc21 [Example 72, 3-(5-Ethyl-7,7-dimethyl-6-oxo-3,5,6,7-tetrahydro-imidazo[4,5-f]indol-2-yl)-1H-indazole-5-carbonitrile] | 6.00 to 7.00
CC1(C)C(=O)N(CCS(C)(=O)=O)c2cc3[nH]c(-c4n[nH]c5ccccc45)nc3cc21 [Example 65, 2-(1H-Indazol-3-yl)-5-(2-methanesulfonyl-ethyl)-7,7-dimethyl-5,7-dihydro-3H-imidazo[4,5-f]indol-6-one] | 6.00 to 7.00
CCN1C(=O)C(C)(C)c2cc3nc(-c4n[nH]c5ccc(C(=O)N6CCSCC6)cc45)[nH]c3cc21 [Example 95, 5-Ethyl-7,7-dimethyl-2-[5-(thiomorpholine-4-carbonyl)-1H-indazol-3-yl]-5,7-dihydro-3H-imidazo[4,5-f]indol-6-one] | 6.00 to 7.00
CCN1C(=O)C(C)(C)c2cc3nc(-c4n[nH]c5ccc(C(C)=O)cc45)[nH]c3cc21 [Example 103, 2-(5-Acetyl-1H-indazol-3-yl)-5-ethyl-7,7-dimethyl-5,7-dihydro-3H-imidazo[4,5-f]indol-6-one] | 6.00 to 7.00
CCN1C(=O)C(C)(C)c2cc3nc(-c4n[nH]c5cc(C(N)=O)ccc45)[nH]c3cc21 [Example 110, 3-(5-Ethyl-7,7-dimethyl-6-oxo-3,5,6,7-tetrahydro-imidazo[4,5-f]indol-2-yl)-1H-indazole-6-carboxylic acid amide] | 5.00 to 6.00
CC1(C)C(=O)Nc2cc3[nH]c(-c4n[nH]c5cc(C(=O)NCc6ccccc6)ccc45)nc3cc21 [Example 104, 3-(7,7-Dimethyl-6-oxo-3,5,6,7-tetrahydro-imidazo[4,5-f]indol-2-yl)-1H-indazole-6-carboxylic acid benzylamide] | 5.00 to 6.00
CCN1C(=O)C(C)(C)c2cc3nc(-c4n[nH]c5ccc(C(=O)O)cc45)[nH]c3cc21 [Example 69, 3-(5-Ethyl-7,7-dimethyl-6-oxo-3,5,6,7-tetrahydro-imidazo[4,5-f]indol-2-yl)-1H-indazole-5-carboxylic acid] | 6.00 to 7.00
CCN1C(=O)C(C)(C)c2cc3[nH]c(-c4n[nH]c5ccc(NC(=O)c6ccccn6)cc45)nc3cc21 [Example 116, Pyridine-2-carboxylic acid [3-(5-ethyl-7,7-dimethyl-6-oxo-1,5,6,7-tetrahydro-imidazo[4,5-f]indol-2-yl)-1H-indazol-5-yl]-amide] | 6.00 to 7.00
CCN1C(=O)C(C)(C)c2cc3nc(-c4n[nH]c5ccc(C(=O)OC)cc45)[nH]c3cc21 [Example 101, 3-(5-Ethyl-7,7-dimethyl-6-oxo-3,5,6,7-tetrahydro-imidazo[4,5-f]indol-2-yl)-1H-indazole-5-carboxylic acid methyl ester] | 6.00 to 7.00
CCN1C(=O)C(C)(C)c2cc3[nH]c(-c4n[nH]c5ccc(NC(=O)Cc6ccc(C)cc6)cc45)nc3cc21 [Example 117, N-[3-(5-Ethyl-7,7-dimethyl-6-oxo-1,5,6,7-tetrahydro-imidazo[4,5-f]indol-2-yl)-1H-indazol-5-yl]-2-p-tolyl-acetamide] | 6.00 to 7.00

More lines, now with the values ahead:

pIC50 | SMILES
6.00 to 7.00 | COc1cc(CNC(=O)CN2C(=O)C(C)(C)c3cc4nc(-c5n[nH]c6ccccc56)[nH]c4cc32)cc(OC)c1 [Example 47, N-(3,5-Dimethoxy-benzyl)-2-[2-(1H-indazol-3-yl)-7,7-dimethyl-6-oxo-6,7-dihydro-3H-imidazo[4,5-f]indol-5-yl]-acetamide]
6.00 to 7.00 | CC1(C)C(=O)N(CCNC(=O)c2cccnc2)c2cc3[nH]c(-c4n[nH]c5ccccc45)nc3cc21 [Example 55, N-{2-[2-(1H-Indazol-3-yl)-7,7-dimethyl-6-oxo-6,7-dihydro-3H-imidazo[4,5-f]indol-5-yl]-ethyl}-nicotinamide]
6.00 to 7.00 | CCN1C(=O)C(C)(C)c2cc3[nH]c(-c4n[nH]c5ccc(NC(=O)Cc6ccccc6C)cc45)nc3cc21 [Example 113, N-[3-(5-Ethyl-7,7-dimethyl-6-oxo-1,5,6,7-tetrahydro-imidazo[4,5-f]indol-2-yl)-1H-indazol-5-yl]-2-o-tolyl-acetamide]
6.00 to 7.00 | CC1(C)C(=O)N(CCNC(=O)C2CC2)c2cc3[nH]c(-c4n[nH]c5ccccc45)nc3cc21 [Example 56, Cyclopropanecarboxylic acid {2-[2-(1H-indazol-3-yl)-7,7-dimethyl-6-oxo-6,7-dihydro-3H-imidazo[4,5-f]indol-5-yl]-ethyl}-amide]
6.00 to 7.00 | CC1(C)C(=O)N(CC(=O)NCc2ccc(F)cc2)c2cc3[nH]c(-c4n[nH]c5ccccc45)nc3cc21 [Example 46, N-(4-Fluoro-benzyl)-2-[2-(1H-indazol-3-yl)-7,7-dimethyl-6-oxo-6,7-dihydro-3H-imidazo[4,5-f]indol-5-yl]-acetamide]
6.00 to 7.00 | CCN1C(=O)C(C)(C)c2cc3nc(-c4n[nH]c5ccc(C(=O)NCc6ccccc6)cc45)[nH]c3cc21 [Example 79, 3-(5-Ethyl-7,7-dimethyl-6-oxo-3,5,6,7-tetrahydro-imidazo[4,5-f]indol-2-yl)-1H-indazole-5-carboxylic acid benzylamide]
6.00 to 7.00 | CCN1C(=O)C(C)(C)c2cc3nc(-c4n[nH]c5ccc(C(=O)NCc6cccc(OC(F)(F)F)c6)cc45)[nH]c3cc21 [Example 86, 3-(5-Ethyl-7,7-dimethyl-6-oxo-3,5,6,7-tetrahydro-imidazo[4,5-f]indol-2-yl)-1H-indazole-5-carboxylic acid 3-trifluoromethoxy-benzylamide]
6.00 to 7.00 | CSCCN1C(=O)C(C)(C)c2cc3nc(-c4n[nH]c5ccccc45)[nH]c3cc21 [Example 25, 2-(1H-Indazol-3-yl)-7,7-dimethyl-5-(2-methylsulfanyl-ethyl)-5,7-dihydro-3H-imidazo[4,5-f]indol-6-one]
